These results are taken from PubChem BioAssay (NCI).

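Method: 48-hour compound exposure of cells in 96-well plates, five concentrations, linear interpolation of endpoints. TGI: concentration producing complete growth inhibition.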

Some test systems named below: SNB-75 CNS; MOLT-4 leukemia; SK-OV-3 ovarian; NCI-H23 lung; ACHN renal; HOP-92 NSCLC; NCI-H226 lung; SF-295 CNS; RXF 393 renal; HS 578T breast; HOP-62 NSCLC; SW-620 colon; MDA-MB-435; U251 CNS; HT29 colon.
Holding throughout (assay): growth of human tumour cells (NCI), 48 h

Take `Cc1c(/C=N/NC(=S)Nc2ccc([N+](=O)[O-])cc2)c(=O)n(-c2ccccc2)n1C`: the TGI is 26.3 µM with SNB-75 CNS; above 100 µM with MOLT-4 leukemia; 26.3 µM in the assay with SK-OV-3 ovarian; 32.6 µM with NCI-H23 lung; 23.6 µM with ACHN renal; 25.5 µM in the assay on HOP-92 NSCLC. The TGI was 29.7 µM in the assay with NCI-H226 lung; 22.7 µM with SF-295 CNS; 24.8 µM with RXF 393 renal; 42.2 µM in the assay on HS 578T breast; 23.8 µM with HOP-62 NSCLC; above 100 µM in the assay on SW-620 colon. The TGI was above 100 µM in the assay with MDA-MB-435, 30.9 µM in the assay with U251 CNS and 25.5 µM in the assay on HT29 colon.
As for `COc1ccc(NS(=O)(=O)c2ccc3ncn(NS(=O)(=O)c4ccc(I)cc4)c(=O)c3c2)cc1`, the TGI in the assay on SNB-75 CNS, in the assay with MOLT-4 leukemia, in the assay on SK-OV-3 ovarian, in the assay on NCI-H23 lung, with ACHN renal and in the assay on HOP-92 NSCLC was above 100 µM throughout. In addition, the TGI in the assay with NCI-H226 lung, with SF-295 CNS, in the assay with RXF 393 renal, with HS 578T breast, in the assay on HOP-62 NSCLC and in the assay on SW-620 colon was above 100 µM in each case. The TGI in the assay with MDA-MB-435, in the assay with U251 CNS and in the assay with HT29 colon was above 100 µM in each case.
Consider `O=C(CC(O)(C(F)(F)Cl)C(F)(F)Cl)CC(O)(C(F)(F)Cl)C(F)(F)Cl`, for which the TGI is 9.7 µM with SNB-75 CNS; above 10 µM in the assay with MOLT-4 leukemia; 5.89 µM in the assay with SK-OV-3 ovarian; 4.29 µM in the assay on NCI-H23 lung; above 10 µM with ACHN renal; 3.04 µM in the assay with HOP-92 NSCLC. The TGI with NCI-H226 lung was 4.66 µM; with SF-295 CNS, 9.51 µM; in the assay on RXF 393 renal it was 6.08 µM; in the assay with HS 578T breast it was 7.86 µM; in the assay with HOP-62 NSCLC, 5.11 µM; in the assay with SW-620 colon, above 10 µM. The TGI is 8.63 µM in the assay with MDA-MB-435, 7.39 µM in the assay on U251 CNS and above 10 µM in the assay with HT29 colon.
As to `COc1ccc(/C=C2\N=C(N3CCOCC3)NC2=O)cc1`, the TGI in the assay on SNB-75 CNS, in the assay on MOLT-4 leukemia, with SK-OV-3 ovarian, with NCI-H23 lung, in the assay on ACHN renal and in the assay with HOP-92 NSCLC was above 100 µM each time. The TGI with NCI-H226 lung, in the assay with SF-295 CNS, in the assay on RXF 393 renal, with HS 578T breast, in the assay on HOP-62 NSCLC and in the assay with SW-620 colon was above 100 µM throughout. Also, the TGI in the assay on MDA-MB-435, in the assay with U251 CNS and in the assay with HT29 colon was above 100 µM each time.
Turning to `CC[C@H](C)[C@H](NC(=O)[C@H](Cc1ccc(O)cc1)NCC(F)(F)F)C(=O)OC(C)(C)C`, the TGI worked out at 17.5 µM in the assay with SNB-75 CNS; 22 µM in the assay on MOLT-4 leukemia; 17.3 µM in the assay on SK-OV-3 ovarian; 20.5 µM in the assay with NCI-H23 lung; 13.9 µM with ACHN renal; 18.8 µM with HOP-92 NSCLC. Also, the TGI in the assay on NCI-H226 lung was 18.8 µM; with SF-295 CNS, 15.2 µM; in the assay on RXF 393 renal, 17.7 µM; in the assay on HS 578T breast, 31.5 µM; in the assay with HOP-62 NSCLC it was 20.5 µM; in the assay with SW-620 colon, 23 µM. The TGI in the assay with MDA-MB-435 is 14.8 µM; in the assay with U251 CNS it was 13.7 µM; with HT29 colon it was 16.3 µM.
Take `C=CC(Br)(CBr)CCC1OC1(C)C` (stereo not given): the TGI turned out to be 32.3 µM in the assay on SNB-75 CNS; 47.8 µM in the assay on MOLT-4 leukemia; 51.7 µM in the assay on SK-OV-3 ovarian; 30.3 µM in the assay on NCI-H23 lung; 34.1 µM in the assay with ACHN renal; 28.2 µM in the assay with HOP-92 NSCLC. The TGI in the assay with NCI-H226 lung is 42.6 µM; with SF-295 CNS, 32 µM; with RXF 393 renal, 21.4 µM; with HS 578T breast, 37.6 µM; in the assay on HOP-62 NSCLC it was 33.2 µM; with SW-620 colon it was 26.8 µM. In addition, the values for the TGI with MDA-MB-435, with U251 CNS and in the assay on HT29 colon were 31.3 µM, 30.7 µM and 32.8 µM, respectively.
Regarding `N[C@@H]1c2c(Br)sc(Br)c2C(=O)[C@H]1Br`, the TGI in the assay on SNB-75 CNS was above 100 µM; with MOLT-4 leukemia it was above 46.1 µM; in the assay on SK-OV-3 ovarian, above 100 µM; with NCI-H23 lung, 57.4 µM; in the assay with ACHN renal, 43.8 µM; in the assay with HOP-92 NSCLC it was 33 µM. Further, the TGI in the assay with NCI-H226 lung was above 58.4 µM; in the assay on SF-295 CNS it was above 100 µM; with RXF 393 renal it was 53.6 µM; with HS 578T breast, above 100 µM; with HOP-62 NSCLC it was above 93.6 µM; in the assay on SW-620 colon, 44.4 µM. Further, the figures for the TGI in the assay on MDA-MB-435, in the assay with U251 CNS and in the assay on HT29 colon were above 61 µM, 60.1 µM and 53.3 µM, respectively.
